Patent US20040005354A1, “Oral trimethobenzamide formulations and methods” (King Pharmaceuticals, Inc., priority 2002, published 2004)

Test: Safety assessment (adverse events, laboratory tests) in the four-way crossover study
Assay type: in vivo, human (healthy subjects)
From the text: Seventy-four healthy, non-smoking, male & female subjects, 18-65 years old were enrolled in this study. A total of 68 subjects completed all the requirements of the protocol. There were no enrollment violations. However, nine of the 74 subjects began the study during the third period of the initial group of subjects. All 74 subjects who received at least one dose of study medication were included in the safety analysis.
This study was a single center, randomized, open-label, 4-way crossover study in healthy subjects. Dosing was administered in the fasted state. Seventy-four (74) subjects were randomized into the study. All seventy-four subjects received one or more doses of study medication and are therefore included in the safety assessment. On Treatment Day 1 of the first treatment period, each subject was randomized to receive one of four possible study treatment sequences. The treatment groups consisted of the four treatments administered sequentially as DCAB, ADBC, BACD or CBDA. These treatments are shown below.
A signed informed consent was obtained from each subject. For screening purposes, the following procedures were required of each subject and were performed by the clinical site within 30 days prior to the study: a complete physical examination including a medical history, vital signs, clinical laboratory safety tests on blood and urine, medications taken prior to and during the study, and a serum pregnancy test for female subjects.
During the treatments, temperature, blood pressure, heart rate and respiratory rate were monitored as a safety measure. A physical examination and clinical laboratory tests were repeated at the completion of the study. Subjects were observed and questioned throughout the study for the occurrence of any adverse events.
A total of 28 adverse events (AEs) were experienced; 27 were treatment emergent. Twenty-one (21) of these were assessed as related to study treatment. All related AEs are known to occur with trimethobenzamide and were primarily mild or moderate in intensity. One (1) severe AE occurred in one subject which was judged as unrelated to study treatment-severe pharyngitis. […] A summary of treatment emergent adverse events (AEs) is presented in Table 6 using the preferred medical term.

[1] = 74 subjects, all four treatment periods

**Q.** For “N-[2-(dimethylamino)-ethoxy]-3,4,5-trimethoxybenzamide hydrochloride [trimethobenzamide hydrochloride]”, which “subjects with decreased red blood cell count at the end of treatment” value (5 percent prior to treatment) is on record?
**A.** 11%

**Q.** What about the “subjects with low hematocrit at the end of treatment” value (8 percent prior to treatment) of the same substance?
**A.** 34%

**Q.** What about the “AEs assessed as related to study treatment” value [1] of the same substance?
**A.** 21

**Q.** What about the “serious AEs” value [1] of the same substance?
**A.** no serious AEs

**Q.** What about the “total adverse events (AEs) experienced” value [1] of the same substance?
**A.** 28

**Q.** What about the “treatment emergent AEs” value [1] of the same substance?
**A.** 27

**Q.** And the “dizziness, number” value (all four treatment periods)?
**A.** 3

**Q.** And the “neurologic complaints, number” value (all four treatment periods)?
**A.** 15

**Q.** What about the “paresthesias, number” value (all four treatment periods) of the same substance?
**A.** 3

**Q.** And the hematocrit mean change (end of treatment vs prior)?
**A.** 2.3%

**Q.** And the hemoglobin mean change (end of treatment vs prior)?
**A.** 0.6 g/dL

**Q.** And the “red blood cell count mean change” value (end of treatment vs prior)?
**A.** 2e+11 L⁻¹

**Q.** And the “overall safety and tolerability” value (in vivo)?
**A.** safe and well tolerated

**Q.** What about the “subjects with normal hemoglobin prior to treatment who had low hemoglobin at the end of treatment” value (in vivo) of the same substance?
**A.** 13%

**Q.** And the “headaches, number” value (seen in a total of 7 subjects)?
**A.** 8

**Q.** What about the “ABDOMINAL PAIN, subjects %” value (sequence A D B C (N = 20)) of the same substance?
**A.** 5.0%

**Q.** What about the “ABDOMINAL PAIN, subjects n” value (sequence A D B C (N = 20)) of the same substance?
**A.** 1

**Q.** And the “CONJUNCTIVITIS, subjects %” value (sequence A D B C (N = 20))?
**A.** 5.0%

**Q.** What about the “CONJUNCTIVITIS, subjects n” value (sequence A D B C (N = 20)) of the same substance?
**A.** 1

**Q.** And the “DIARRHEA, subjects %” value (sequence A D B C (N = 20))?
**A.** 0.0%

**Q.** What about the “DIARRHEA, subjects n” value (sequence A D B C (N = 20)) of the same substance?
**A.** 0

**Q.** What about the “DIZZINESS, subjects %” value (sequence A D B C (N = 20)) of the same substance?
**A.** 15.0%

**Q.** And the “DIZZINESS, subjects n” value (sequence A D B C (N = 20))?
**A.** 3

**Q.** And the “EDEMA, PALMAR, subjects %” value (sequence A D B C (N = 20))?
**A.** 5.0%

**Q.** What about the “EDEMA, PALMAR, subjects n” value (sequence A D B C (N = 20)) of the same substance?
**A.** 1

**Q.** And the “ERYTHEMA, EXTERNAL NOSE, subjects %” value (sequence A D B C (N = 20))?
**A.** 0.0%

**Q.** What about the “ERYTHEMA, EXTERNAL NOSE, subjects n” value (sequence A D B C (N = 20)) of the same substance?
**A.** 0

**Q.** What about the “ERYTHEMA, PALMAR, subjects %” value (sequence A D B C (N = 20)) of the same substance?
**A.** 5.0%

**Q.** And the “ERYTHEMA, PALMAR, subjects n” value (sequence A D B C (N = 20))?
**A.** 1

**Q.** What about the “HEADACHE, subjects %” value (sequence A D B C (N = 20)) of the same substance?
**A.** 5.0%

**Q.** What about the “HEADACHE, subjects n” value (sequence A D B C (N = 20)) of the same substance?
**A.** 1

**Q.** What about the “HYPOTONIA, subjects %” value (sequence A D B C (N = 20)) of the same substance?
**A.** 0.0%

**Q.** And the “HYPOTONIA, subjects n” value (sequence A D B C (N = 20))?
**A.** 0

**Q.** What about the “INJECTION SITE REACTION, subjects %” value (sequence A D B C (N = 20)) of the same substance?
**A.** 0.0%

**Q.** What about the “INJECTION SITE REACTION, subjects n” value (sequence A D B C (N = 20)) of the same substance?
**A.** 0

**Q.** And the “LARYNGISMUS, subjects %” value (sequence A D B C (N = 20))?
**A.** 0.0%

**Q.** And the “LARYNGISMUS, subjects n” value (sequence A D B C (N = 20))?
**A.** 0

**Q.** What about the “LEG CRAMPS, subjects %” value (sequence A D B C (N = 20)) of the same substance?
**A.** 0.0%

**Q.** What about the “LEG CRAMPS, subjects n” value (sequence A D B C (N = 20)) of the same substance?
**A.** 0

**Q.** What about the “NAUSEA AND VOMITING, subjects %” value (sequence A D B C (N = 20)) of the same substance?
**A.** 5.0%

**Q.** And the “NAUSEA AND VOMITING, subjects n” value (sequence A D B C (N = 20))?
**A.** 1

**Q.** What about the “NAUSEA, subjects %” value (sequence A D B C (N = 20)) of the same substance?
**A.** 5.0%

**Q.** What about the “NAUSEA, subjects n” value (sequence A D B C (N = 20)) of the same substance?
**A.** 1

**Q.** And the “Number of Subject With At Least one AE, %” value (sequence A D B C (N = 20))?
**A.** 25.0%

**Q.** And the “Number of Subject With No AE, %” value (sequence A D B C (N = 20))?
**A.** 75.0%

**Q.** What about the “PARESTHESIA, subjects %” value (sequence A D B C (N = 20)) of the same substance?
**A.** 0.0%

**Q.** What about the “PARESTHESIA, subjects n” value (sequence A D B C (N = 20)) of the same substance?
**A.** 0

**Q.** And the “PHARYNGITIS, subjects %” value (sequence A D B C (N = 20))?
**A.** 0.0%

**Q.** What about the “PHARYNGITIS, subjects n” value (sequence A D B C (N = 20)) of the same substance?
**A.** 0

**Q.** What about the “RASH, subjects %” value (sequence A D B C (N = 20)) of the same substance?
**A.** 0.0%

**Q.** What about the “RASH, subjects n” value (sequence A D B C (N = 20)) of the same substance?
**A.** 0

**Q.** And the “ABDOMINAL PAIN, subjects %” value (sequence B A C D (N = 18))?
**A.** 0.0%

**Q.** What about the “ABDOMINAL PAIN, subjects n” value (sequence B A C D (N = 18)) of the same substance?
**A.** 0

**Q.** And the “CONJUNCTIVITIS, subjects %” value (sequence B A C D (N = 18))?
**A.** 0.0%

**Q.** And the “CONJUNCTIVITIS, subjects n” value (sequence B A C D (N = 18))?
**A.** 0

**Q.** And the “DIARRHEA, subjects %” value (sequence B A C D (N = 18))?
**A.** 0.0%

**Q.** And the “DIARRHEA, subjects n” value (sequence B A C D (N = 18))?
**A.** 0

**Q.** And the “DIZZINESS, subjects %” value (sequence B A C D (N = 18))?
**A.** 0.0%

**Q.** What about the “DIZZINESS, subjects n” value (sequence B A C D (N = 18)) of the same substance?
**A.** 0

**Q.** And the “EDEMA, PALMAR, subjects %” value (sequence B A C D (N = 18))?
**A.** 0.0%

**Q.** And the “EDEMA, PALMAR, subjects n” value (sequence B A C D (N = 18))?
**A.** 0

**Q.** And the “ERYTHEMA, EXTERNAL NOSE, subjects %” value (sequence B A C D (N = 18))?
**A.** 0.0%

**Q.** What about the “ERYTHEMA, EXTERNAL NOSE, subjects n” value (sequence B A C D (N = 18)) of the same substance?
**A.** 0

**Q.** And the “ERYTHEMA, PALMAR, subjects %” value (sequence B A C D (N = 18))?
**A.** 0.0%

**Q.** What about the “ERYTHEMA, PALMAR, subjects n” value (sequence B A C D (N = 18)) of the same substance?
**A.** 0

**Q.** What about the “HEADACHE, subjects %” value (sequence B A C D (N = 18)) of the same substance?
**A.** 0.0%

**Q.** And the “HEADACHE, subjects n” value (sequence B A C D (N = 18))?
**A.** 0

**Q.** What about the “HYPOTONIA, subjects %” value (sequence B A C D (N = 18)) of the same substance?
**A.** 0.0%

**Q.** What about the “HYPOTONIA, subjects n” value (sequence B A C D (N = 18)) of the same substance?
**A.** 0

**Q.** And the “INJECTION SITE REACTION, subjects %” value (sequence B A C D (N = 18))?
**A.** 5.6%

**Q.** What about the “INJECTION SITE REACTION, subjects n” value (sequence B A C D (N = 18)) of the same substance?
**A.** 1

**Q.** And the “LARYNGISMUS, subjects %” value (sequence B A C D (N = 18))?
**A.** 5.6%

**Q.** What about the “LARYNGISMUS, subjects n” value (sequence B A C D (N = 18)) of the same substance?
**A.** 1

**Q.** What about the “LEG CRAMPS, subjects %” value (sequence B A C D (N = 18)) of the same substance?
**A.** 0.0%

**Q.** What about the “LEG CRAMPS, subjects n” value (sequence B A C D (N = 18)) of the same substance?
**A.** 0

**Q.** What about the “NAUSEA AND VOMITING, subjects %” value (sequence B A C D (N = 18)) of the same substance?
**A.** 0.0%

**Q.** And the “NAUSEA AND VOMITING, subjects n” value (sequence B A C D (N = 18))?
**A.** 0

**Q.** And the “NAUSEA, subjects %” value (sequence B A C D (N = 18))?
**A.** 0.0%

**Q.** What about the “NAUSEA, subjects n” value (sequence B A C D (N = 18)) of the same substance?
**A.** 0

**Q.** And the “Number of Subject With At Least one AE, %” value (sequence B A C D (N = 18))?
**A.** 22.2%

**Q.** And the “Number of Subject With No AE, %” value (sequence B A C D (N = 18))?
**A.** 77.8%

**Q.** And the “PARESTHESIA, subjects %” value (sequence B A C D (N = 18))?
**A.** 11.1%

**Q.** What about the “PARESTHESIA, subjects n” value (sequence B A C D (N = 18)) of the same substance?
**A.** 2
